# Laboratory results: patent publication US10030047B2 (Hoffmann-La Roche Inc., priority 2015, dated 2018)
# Test system: A. baumannii strain ATCC19606
# Experiment: Minimum inhibitory concentration (MIC) determination, microbroth dilution (CLSI)
# Format: cell-based
# Conditions: Acinetobacter baumannii; A. baumannii ATCC19606; CAMHB; read after 20 hours; >=80% growth inhibition; read-out: ATCC19606 MIC
# Summary of the method: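 After 20 h at 35±2 °C, MIC taken visually and by OD 600 nm as the lowest concentration giving ≥80% growth inhibition. Bacteria (~5×10^5 CFU/ml) were tested per CLSI microbroth dilution against twofold serial compound dilutions in cation-adjusted Mueller Hinton broth.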
row,MIC,Structure (SMILES)
1,1 µg/mL,"CN1C(=O)[C@H](CCCCN)NC(=O)[C@H](CCCN)NCc2ccccc2Sc2ccc(C(F)(F)F)cc2CNC(=O)[C@@H]1Cc1c[nH]c2ccccc12 [Example 14, (12S,15S,18S)-15-(4-Amino-butyl)-18-(3-amino-propyl)-12-(1H-indol-3-ylmethyl)-13-methyl-6-trifluoromethyl-2-thia-10,13,16,19-tetraaza-tricyclo[19.4.0.0*3,8*]pentacosa-1(21),3,5,7,22,24-hexaene-11,14,17-trione]"
2,0.25 µg/mL,"CN1C(=O)[C@H](CCCCN)NC(=O)[C@H](CCCN)NCc2cccnc2Sc2c(Cl)cc(-c3ccnc(Cl)c3)cc2CNC(=O)[C@@H]1Cc1c[nH]c2ccccc12 [Example 164, (11S,14S,17S)-14-(4-Amino-butyl)-11-(3-amino-propyl)-25-chloro-23-(2-chloro-pyridin-4-yl)-17-(1H-indol-3-ylmethyl)-16-methyl-2-thia-4,10,13,16,19-pentaaza-tricyclo[19.4.0.0*3,8*]pentacosa-1(21),3,5,7,22,24-hexaene-12,15,18-trione]"
3,0.5 µg/mL,"Cc1cc(Cl)cc2c1Sc1ccccc1CN[C@@H](CCCN)C(=O)N[C@@H](CCCCN)C(=O)N(C)[C@@H](Cc1c[nH]c3ccccc13)C(=O)NC2 [Example 55, (12S,15S,18S)-15-(4-Amino-butyl)-18-(3-amino-propyl)-6-chloro-12-(1H-indol-3-ylmethyl)-4,13-dimethyl-2-thia-10,13,16,19-tetraaza-tricyclo[19.4.0.0*3,8*]pentacosa-1(25),3,5,7,21,23-hexaene-11,14,17-trione]"
4,16 µg/mL,"CN1C(=O)[C@H](CCCCN)NC(=O)CNCc2cccnc2Sc2c(Cl)cc(Cl)cc2CNC(=O)[C@@H]1Cc1c[nH]c2ccccc12 [Example 93, (14S,17S)-14-(4-Amino-butyl)-23,25-dichloro-17-(1H-indol-3-ylmethyl)-16-methyl-2-thia-4,10,13,16,19-pentaaza-tricyclo[19.4.0.0*3,8*]pentacosa-1(25),3,5,7,21,23-hexaene-12,15,18-trione]"
5,0.5 µg/mL,"COc1cc(-c2cc(Cl)c3c(c2)CNC(=O)[C@H](Cc2c[nH]c4ccccc24)N(C)C(=O)[C@H](CCCCN)NC(=O)[C@H](CCCN)NCc2cccnc2S3)ccn1 [Example 102, (11S,14S,17S)-14-(4-Amino-butyl)-11-(3-amino-propyl)-25-chloro-17-(1H-indol-3-ylmethyl)-23-(2-methoxy-pyridin-4-yl)-16-methyl-2-thia-4,10,13,16,19-pentaaza-tricyclo[19.4.0.0*3,8*]pentacosa-1(25),3,5,7,21,23-hexaene-12,15,18-trione]"
6,1 µg/mL,"CN1C(=O)[C@H](CCCCN)NC(=O)[C@H](CCCN)NCc2cccnc2Sc2c(cccc2C(F)(F)F)CNC(=O)[C@@H]1Cc1c[nH]c2ccccc12 [Example 36, (11S,14S,17S)-14-(4-Amino-butyl)-11-(3-amino-propyl)-17-(1H-indol-3-ylmethyl)-16-methyl-25-trifluoromethyl-2-thia-4,10,13,16,19-pentaaza-tricyclo[19.4.0.0*3,8*]pentacosa-1(25),3,5,7,21,23-hexaene-12,15,18-trione]"
7,2 µg/mL,"CN1C(=O)[C@H](CCCCN)NC(=O)[C@H](CCCN)NCc2cccnc2Sc2c(Cl)cc(-c3ccncn3)cc2CNC(=O)[C@@H]1Cc1c[nH]c2ccccc12 [Example 213, (11S,14S,17S)-14-(4-Amino-butyl)-11-(3-amino-propyl)-25-chloro-17-(1H-indol-3-ylmethyl)-16-methyl-23-pyrimidin-4-yl-2-thia-4,10,13,16,19-pentaaza-tricyclo[19.4.0.0*3,8*]pentacosa-1(21),3,5,7,22,24-hexaene-12,15,18-trione]"
8,0.25 µg/mL,"CN1C(=O)[C@H](CCCCN)NC(=O)[C@H](CCCN)NCc2cccnc2Sc2c(Cl)ccc(-c3ccccc3)c2CNC(=O)[C@@H]1Cc1c[nH]c2ccccc12 [Example 129, (11S,14S,17S)-14-(4-Amino-butyl)-11-(3-amino-propyl)-25-chloro-17-(1H-indol-3-ylmethyl)-16-methyl-22-phenyl-2-thia-4,10,13,16,19-pentaaza-tricyclo[19.4.0.0*3,8*]pentacosa-1(25),3(8),4,6,21,23-hexaene-12,15,18-trione]"
9,16 µg/mL,"CN1C(=O)[C@H](CCCCN)NC(=O)[C@H](CCCN)NCc2ccccc2Sc2ccc(Cl)cc2CNC(=O)[C@@H]1Cc1c[nH]c2cc(Cl)ccc12 [Example 18, (12S,15S,18S)-15-(4-Amino-butyl)-18-(3-amino-propyl)-6-chloro-12-(6-chloro-1H-indol-3-ylmethyl)-13-methyl-2-thia-10,13,16,19-tetraaza-tricyclo[19.4.0.0*3,8*]pentacosa-1(21),3,5,7,22,24-hexaene-11,14,17-trione]"
10,2 µg/mL,"COc1cc(-c2cc(Cl)c3c(c2)CNC(=O)[C@H](Cc2c[nH]c4ccccc24)N(C)C(=O)[C@H](CCCCN)NC(=O)[C@H](CCC(N)=O)NCc2cccnc2S3)ccn1 [Example 134, 3-[(11S,14S,17S)-14-(4-Amino-butyl)-25-chloro-17-(1H-indol-3-ylmethyl)-23-(2-methoxy-pyridin-4-yl)-16-methyl-12,15,18-trioxo-2-thia-4,10,13,16,19-pentaaza-tricyclo[19.4.0.0*3,8*]pentacosa-1 (25),3(8),4,6,21,23 exaen-11-yl]-propionamde]"
11,4 µg/mL,"Cc1noc(C)c1-c1cc(Cl)c2c(c1)CNC(=O)[C@H](Cc1c[nH]c3ccccc13)N(C)C(=O)[C@H](CCCCN)NC(=O)[C@H](CCC(N)=O)NCc1cccnc1S2 [Example 169, 3-[(11S,14S,17S)-14-(4-Amino-butyl)-25-chloro-23-(3,5-dimethyl-isoxazol-4-yl)-17-(1H-indol-3-ylmethyl)-16-methyl-12,15,18-trioxo-2-thia-4,10,13,16,19-pentaaza-tricyclo[19.4.0.0*3,8*]pentacosa-1(25),3(8),4,6,21,23-hexaen-11-yl]-propionamide]"
12,4 µg/mL,"CN1C(=O)[C@H](CCCCN)NC(=O)[C@H](CCCN)NCc2cccnc2Sc2c(Cl)cc(-c3ccc(O)nc3)cc2CNC(=O)[C@@H]1Cc1c[nH]c2ccccc12 [Example 165, (11S,14S,17S)-14-(4-Amino-butyl)-11-(3-amino-propyl)-25-chloro-23-(6-hydroxy-pyridin-3-yl)-17-(1H-indol-3-ylmethyl)-16-methyl-2-thia-4,10,13,16,19-pentaaza-tricyclo[19.4.0.0*3,8*]pentacosa-1(25),3(8),4,6,21,23-hexaene-12,15,18-trione]"
13,0.12 µg/mL,"CN1C(=O)[C@H](CCCCN)NC(=O)[C@H](CCCN)NCc2cccnc2Sc2c(Cl)ccc(-c3ccc(O)nc3)c2CNC(=O)[C@@H]1Cc1c[nH]c2ccccc12 [Example 230, (11S,14S,17S)-14-(4-Amino-butyl)-11-(3-amino-propyl)-25-chloro-22-(6-hydroxy-pyridin-3-yl)-17-(1H-indol-3-ylmethyl)-16-methyl-2-thia-4,10,13,16,19-pentaaza-tricyclo[19.4.0.0*3,8*]pentacosa-1(21),3,5,7,22,24-hexaene-12,15,18-trione]"
14,1 µg/mL,"CN1C(=O)[C@H](CCCCN)NC(=O)[C@H](CCCN)NCc2cccnc2Sc2c(Cl)cc(-c3ccccn3)cc2CNC(=O)[C@@H]1Cc1c[nH]c2ccccc12 [Example 150, (11S,14S,17S)-14-(4-Amino-butyl)-11-(3-amino-propyl)-25-chloro-17-(1H-indol-3-ylmethyl)-16-methyl-23-pyridin-2-yl-2-thia-4,10,13,16,19-pentaaza-tricyclo[19.4.0.0*3,8*]pentacosa-1(25),3(8),4,6,21,23-hexaene-12,15-18-trione]"
